Reference: patent US20230096766A1, “AMINO ACID HAVING FUNCTIONAL GROUP CAPABLE OF INTERMOLECULAR HYDROGEN BONDING, PEPTIDE COMPOUND CONTAINING SAME AND METHOD FOR PRODUCTION THEREOF” (Chugai Seiyaku Kabushiki Kaisha, priority 2018, published 2023)
*1 amine or outer side, *2 acyl side, *3 side chain or, on linkers, in order; H or OH if unused. Where a SMILES comes first, the peptide text is derived from it. Bridges are numbered along the chain shown (N, C = ends). [ ]: non-standard residue; d: D form. The star is where a group is joined. Phe(3-OMe,4-CONHMs) = COc1cc(C[C@H](N)C(=O)O)ccc1C(=O)NS(C)(=O)=O; X1 = COc1cc(C[C@H](N[*:1])C(=O)[*:2])ccc1C(=O)NO; Glu(NHSO2Me) = CS(=O)(=O)NC(=O)CC[C@H](N)C(=O)O; X11 = CNC(=O)c1ccc(CCN(CC(=O)[*:2])[*:1])cc1OC; NMePhe(3-Cl) = CN[C@@H](Cc1cccc(Cl)c1)C(=O)O; NMehPhe = CN[C@@H](CCc1ccccc1)C(=O)O; NMeF = CN[C@@H](Cc1ccccc1)C(=O)O; NMeI = CC[C@H](C)[C@H](NC)C(=O)O; Butyl(3-Me,3-OH) = CC(C)(O)CC*; CH2CH(OH)CF3 = OC(C*)C(F)(F)F; NMeL = CN[C@@H](CC(C)C)C(=O)O; Propyl(2R-OH) = C[C@@H](O)C*; NMeV = CN[C@H](C(=O)O)C(C)C; NMeAbu = CC[C@H](NC)C(=O)O; NMeA = CN[C@@H](C)C(=O)O; Piperidide = C1CCN(*)CC1; Me2NCH2CH2 = CN(C)CC*; NBuGly = CCCCNCC(=O)O; Isopentyl = CC(C)CC*; Sar = CNCC(=O)O; tBu = CC(C)(C)*

Assay: in vitro
Conditions: human

Compound | Papp (Caco-2, Caco-2 (cm/sec)) [×10⁻⁶ cm/s] | further results
CC[C@H](C)[C@@H]1NC(=O)[C@H](CC(C)C)N(C)C(=O)[C@@H](CC(C)C)NC(=O)C[C@@H](C(=O)N2CCCCC2)NC(=O)[C@H](CC(C)C)N(C)C(=O)[C@H](Cc2ccccc2)N(C)C(=O)[C@H](COC(C)(C)C)NC(=O)CN(CCc2ccc(C(=O)NC)c(OC)c2)C(=O)CN(C)C(=O)[C@H]([C@@H](C)O)NC(=O)[C@H](CC(C)C)N(C)C1=O [AP221] ([dL][NMeL]I[NMeL]T[Sar][X11]S(tBu)[NMeF][NMeL]D-Piperidide; lactam N-11) | 0.28 | 
CCCCN1CC(=O)N(C)[C@@H](CC(C)C)C(=O)N[C@@H](COC(C)(C)C)C(=O)N(C)[C@@H](Cc2ccccc2)C(=O)N(C)[C@@H](CC(C)C)C(=O)N[C@H](C(=O)N2CCCCC2)CC(=O)N[C@H](C(C)C)C(=O)N(C)[C@@H](C(C)C)C(=O)N[C@@H](Cc2ccc(C(=O)NS(C)(=O)=O)c(OC)c2)C(=O)N(C)[C@@H](CC(C)C)C(=O)N[C@@H]([C@@H](C)O)C1=O [AP135] ([dV][NMeV][Phe(3-OMe,4-CONHMs)][NMeL]T[NBuGly][NMeL]S(tBu)[NMeF][NMeL]D-Piperidide; lactam N-11) | 0.88 | 
CCCCN1CC(=O)N(C)[C@@H](Cc2ccccc2)C(=O)N[C@@H](COCCN(C)C)C(=O)N(C)[C@@H](CC(C)C)C(=O)N[C@@H]([C@@H](C)O)C(=O)N(C)CC(=O)N(C)[C@@H](Cc2ccccc2)C(=O)N(C)[C@@H](CC)C(=O)N[C@@H](COCCC(C)C)C(=O)N(C)[C@@H](CC(C)C)C(=O)N[C@H](C(=O)N2CCCCC2)CC1=O [pd58] ([NBuGly][NMeF]S(Me2NCH2CH2)[NMeL]T[Sar][NMeF][NMeAbu]S(Isopentyl)[NMeL]D-Piperidide; lactam N-11) |  | Papp (Caco-2, Caco-2): 0.021 ×10⁻⁶ cm/s
CCCCN1CC(=O)N(C)[C@@H](CC(C)C)C(=O)N[C@@H](CCC(=O)NS(C)(=O)=O)C(=O)N(C)[C@@H](Cc2cccc(Cl)c2)C(=O)N(C)[C@@H](C(C)C)C(=O)N[C@H](C(=O)N2CCCCC2)CC(=O)N[C@H](CC(C)C)C(=O)N(C)[C@@H](Cc2cccc(Cl)c2)C(=O)N[C@@H](CC(C)C)C(=O)N(C)[C@@H](CC(C)C)C(=O)N[C@@H]([C@@H](C)O)C1=O [pd60] ([dL][NMePhe(3-Cl)]L[NMeL]T[NBuGly][NMeL][Glu(NHSO2Me)][NMePhe(3-Cl)][NMeV]D-Piperidide; lactam N-11) |  | Papp (Caco-2, Caco-2): 0.01 ×10⁻⁶ cm/s
CC[C@H](C)[C@H]1C(=O)N[C@@H](C(C)C)C(=O)N(C)CC(=O)N(C)[C@@H](CC(C)C)C(=O)N[C@H](C(=O)N2CCCCC2)CC(=O)N(C)[C@@H](C)C(=O)N[C@@H](COCC(O)C(F)(F)F)C(=O)N(C)[C@@H](CC(C)C)C(=O)N(C)[C@@H](Cc2ccccc2)C(=O)N[C@@H](CC(C)C)C(=O)N(C)[C@@H](Cc2ccccc2)C(=O)N1C (stereo partly drawn) [Compound C15] ([NMeA]S(CH2CH(OH)CF3)[NMeL][NMeF]L[NMeF][NMeI]V[Sar][NMeL]D-Piperidide; lactam N-11) |  | Papp (Caco-2, Caco-2 (membrane permeability)): 0.83 ×10⁻⁶ cm/s
CC(C)C[C@@H]1NC(=O)[C@H](Cc2ccccc2)N(C)C(=O)C[C@@H](C(=O)N2CCCCC2)NC(=O)[C@H](CC(C)C)N(C)C(=O)CN(C)C(=O)[C@H]([C@@H](C)O)NC(=O)[C@H](Cc2ccccc2)N(C)C(=O)[C@H](Cc2ccccc2)N(C)C(=O)[C@H](CC(C)C)NC(=O)[C@H](Cc2ccccc2)N(C)C(=O)[C@H](CC(C)C)N(C)C1=O [pd227] ([NMeF]L[NMeL][NMeF]L[NMeF][NMeF]T[Sar][NMeL]D-Piperidide; lactam N-11) |  | Papp (Caco-2, Caco-2 (cm/sec) Papp): 0.61 ×10⁻⁶ cm/s
CC[C@H](C)[C@@H]1NC(=O)[C@H](Cc2ccccc2)N(C)C(=O)CN(C)C(=O)C[C@@H](C(=O)N2CCCCC2)NC(=O)[C@H](CC(C)C)N(C)C(=O)[C@H](COCCC(C)(C)O)NC(=O)[C@H](CC(C)C)N(C)C(=O)[C@H](CCc2ccccc2)N(C)C(=O)CN(C)C(=O)[C@H]([C@@H](C)O)NC(=O)[C@H](CC(C)C)N(C)C1=O [AP58] ([Sar][NMeF]I[NMeL]T[Sar][NMehPhe][NMeL]S(Butyl(3-Me,3-OH))[NMeL]D-Piperidide; lactam N-11) | 0.49 | 
CCCCN1CC(=O)N(C)[C@@H](CC(C)C)C(=O)N[C@@H](Cc2ccc(C(=O)NO)c(OC)c2)C(=O)N(C)[C@@H](CC(C)C)C(=O)N(C)[C@@H](CC(C)C)C(=O)N[C@H](C(=O)N2CCCCC2)CC(=O)N[C@H](CC(C)C)C(=O)N(C)[C@@H](Cc2ccccc2)C(=O)N[C@@H](C(C)C)C(=O)N(C)[C@@H](CC(C)C)C(=O)N[C@@H]([C@@H](C)O)C1=O [AP257] ([dL][NMeF]V[NMeL]T[NBuGly][NMeL][X1][NMeL][NMeL]D-Piperidide; lactam N-11) | 0.03 | 
CC[C@H](C)[C@H]1C(=O)N[C@@H]([C@@H](C)O)C(=O)N(C)CC(=O)N(C)[C@@H](C)C(=O)N[C@H](C(=O)N2CCCCC2)CC(=O)N(C)[C@@H](C)C(=O)N[C@@H](C(C)C)C(=O)N(C)[C@@H](CC(C)C)C(=O)N(C)[C@@H](Cc2ccccc2)C(=O)NC(COc2cccc(Cl)c2)C(=O)N(C)[C@@H](Cc2ccccc2)C(=O)N1C (stereo partly shown) [pd186] | 1.8 | 
CC[C@H](C)[C@H]1C(=O)N[C@@H](COC[C@@H](C)O)C(=O)N(C)CC(=O)N(C)[C@@H](CC(C)C)C(=O)N[C@H](C(=O)N2CCCCC2)CC(=O)N(C)[C@@H](C)C(=O)N[C@@H](CC(C)C)C(=O)N(C)[C@@H](CC(C)C)C(=O)N(C)[C@@H](Cc2ccccc2)C(=O)N[C@@H](CC(C)C)C(=O)N(C)[C@@H](Cc2ccccc2)C(=O)N1C [AP85] ([NMeA]L[NMeL][NMeF]L[NMeF][NMeI]S(Propyl(2R-OH))[Sar][NMeL]D-Piperidide; lactam N-11) | 5.2 | 
